{
  "source": "patent US12611671B2",
  "about": "“Methods, systems and kits for in-pen assays” (Bruker Cellular Analysis, Inc., priority 2016, dated 2026)",
  "origin": "cited, not measured here",
  "molecular_target": "IgG",
  "details": "(Fc); read-out: Affinity for IgG",
  "data": [
    {"sequence": "DCAWHLGELVWCT [CPD 4, Asp Cys Ala Trp His Leu Gly Glu Leu Val Trp Cys Thr]", "values": [
      {"measurement": "Kd", "result": 100, "unit": "nM"}
    ]}
  ]
}
